{
  "source": "paper PMC8668026",
  "about": "(ACS infectious diseases, 2021)",
  "key": {"E. cloacae ATCC13047 [1]": {"system": "E. cloacae ATCC13047", "assay": "MIC in E. cloacae", "type": "cell-based, Enterobacter cloacae"}, "K. pneumoniae ATCC13883 [2]": {"system": "K. pneumoniae ATCC13883", "assay": "MIC in K. pneumoniae", "type": "cell-based, Klebsiella pneumoniae"}, "E. coli ΔtolC": {"system": "E. coli ΔtolC", "assay": "MIC, 2-fold broth dilution, efflux-deficient ΔtolC", "type": "cell-based, Escherichia coli", "details": "average of two replicates"}, "E. coli WT-pore": {"system": "E. coli WT-pore", "assay": "MIC, 2-fold broth dilution, hyperporinated WT-pore", "type": "cell-based, Escherichia coli", "details": "for MIC: Escherichia coli, read-out: MIC WT-pore"}, "AcrA [3]": {"target": "T1, AcrA (Escherichia coli, UniProt P0AE06)", "T1 sequence (P0AE06 25-397)": "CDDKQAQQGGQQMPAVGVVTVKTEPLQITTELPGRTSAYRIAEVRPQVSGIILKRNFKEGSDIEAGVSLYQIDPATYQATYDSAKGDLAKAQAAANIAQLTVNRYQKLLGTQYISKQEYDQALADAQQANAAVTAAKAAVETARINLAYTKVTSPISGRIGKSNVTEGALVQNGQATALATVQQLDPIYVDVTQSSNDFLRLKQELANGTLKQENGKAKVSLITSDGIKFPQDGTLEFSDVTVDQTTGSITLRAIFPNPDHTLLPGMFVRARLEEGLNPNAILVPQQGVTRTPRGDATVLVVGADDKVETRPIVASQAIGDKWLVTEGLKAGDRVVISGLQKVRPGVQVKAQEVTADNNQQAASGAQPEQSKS", "details": "read-out: KD AcrA; SPR; ref [38] and [47]; cited from earlier work"}, "E. coli ΔtolC-pore": {"system": "E. coli ΔtolC-pore", "assay": "MIC, 2-fold broth dilution, ΔtolC-pore", "type": "cell-based, Escherichia coli", "details": "average of two replicates"}, "E. coli BW25113 (WT)": {"system": "E. coli BW25113 (WT)", "assay": "MIC, 2-fold broth dilution, E. coli WT", "type": "cell-based, Escherichia coli", "details": "for MIC: Escherichia coli, BW25113, read-out: MIC WT"}, "AcrB": {"target": "AcrB (Escherichia coli, UniProt P31224)", "sequence (P31224 whole entry)": "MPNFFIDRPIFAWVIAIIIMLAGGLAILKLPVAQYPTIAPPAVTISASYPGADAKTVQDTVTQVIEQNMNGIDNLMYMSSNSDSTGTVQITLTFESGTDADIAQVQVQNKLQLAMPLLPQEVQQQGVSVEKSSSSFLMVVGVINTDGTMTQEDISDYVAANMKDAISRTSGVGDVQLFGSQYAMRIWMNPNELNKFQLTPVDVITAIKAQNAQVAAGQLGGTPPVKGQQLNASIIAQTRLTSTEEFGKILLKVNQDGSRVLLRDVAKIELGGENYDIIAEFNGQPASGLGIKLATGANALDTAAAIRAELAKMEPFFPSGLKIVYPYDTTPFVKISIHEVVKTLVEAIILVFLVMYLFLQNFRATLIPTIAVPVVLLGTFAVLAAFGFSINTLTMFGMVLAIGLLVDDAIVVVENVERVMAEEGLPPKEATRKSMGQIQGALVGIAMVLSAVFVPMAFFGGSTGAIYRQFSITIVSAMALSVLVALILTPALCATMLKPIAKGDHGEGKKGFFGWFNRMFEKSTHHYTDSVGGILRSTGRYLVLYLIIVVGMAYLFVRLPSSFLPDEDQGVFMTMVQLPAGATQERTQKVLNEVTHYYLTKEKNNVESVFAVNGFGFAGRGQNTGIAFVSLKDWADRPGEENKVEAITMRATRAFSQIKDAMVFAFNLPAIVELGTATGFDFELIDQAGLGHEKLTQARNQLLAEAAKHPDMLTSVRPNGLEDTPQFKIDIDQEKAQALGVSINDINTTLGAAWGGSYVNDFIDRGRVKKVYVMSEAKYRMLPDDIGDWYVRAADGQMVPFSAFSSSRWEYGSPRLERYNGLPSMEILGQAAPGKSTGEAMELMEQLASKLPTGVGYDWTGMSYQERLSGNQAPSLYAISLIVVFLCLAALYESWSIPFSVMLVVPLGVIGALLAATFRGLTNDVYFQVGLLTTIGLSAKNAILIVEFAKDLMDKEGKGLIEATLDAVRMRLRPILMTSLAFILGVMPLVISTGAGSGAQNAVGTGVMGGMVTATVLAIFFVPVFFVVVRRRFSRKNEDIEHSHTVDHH", "details": "read-out: KD AcrB; SPR; ref [38] and [47]; cited from earlier work"}, "E. cloacae ATCC13047 [4]": {"system": "E. cloacae ATCC13047", "assay": "Potentiation of NOV, ERY, CIP in E. cloacae", "type": "cell-based, Enterobacter cloacae"}, "K. pneumoniae ATCC13883 [5]": {"system": "K. pneumoniae ATCC13883", "assay": "Potentiation of NOV, ERY, CIP in K. pneumoniae", "type": "cell-based, Klebsiella pneumoniae"}, "E. coli WT-pore cells": {"system": "E. coli WT-pore cells", "assay": "Checkerboard potentiation of novobiocin/erythromycin", "type": "cell-based, Escherichia coli"}, "A549 cells": {"system": "A549 cells", "assay": "MTS cytotoxicity assay", "type": "cell-based, human", "details": "average of two replicates"}, "AcrAB−TolC": {"target": "AcrAB−TolC (Escherichia coli, UniProt P0AE06+P31224)", "sequence (P31224 whole entry)": "as above", "sequence (P0AE06 25-397)": "as the sequence (P0AE06 25-397) above", "sequence (P02930 23-493, further chain)": "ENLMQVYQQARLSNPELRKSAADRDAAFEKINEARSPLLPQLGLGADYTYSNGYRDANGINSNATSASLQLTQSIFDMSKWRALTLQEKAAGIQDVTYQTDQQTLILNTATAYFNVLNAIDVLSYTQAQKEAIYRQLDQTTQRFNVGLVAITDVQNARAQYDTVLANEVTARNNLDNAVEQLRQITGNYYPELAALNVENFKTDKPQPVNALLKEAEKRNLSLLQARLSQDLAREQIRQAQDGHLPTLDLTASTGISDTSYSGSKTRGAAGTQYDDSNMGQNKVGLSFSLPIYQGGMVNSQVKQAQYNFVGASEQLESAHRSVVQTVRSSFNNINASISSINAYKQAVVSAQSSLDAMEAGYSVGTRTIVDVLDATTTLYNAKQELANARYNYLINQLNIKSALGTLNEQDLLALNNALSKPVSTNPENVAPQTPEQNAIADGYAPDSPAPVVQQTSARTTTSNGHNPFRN", "details": "steady-state Nile Red accumulation in WT-pore cells with 32 μM vs 0 μM compound"}, "AcrA [6]": {"target": "T1, AcrA", "details": "periplasm of WT-pore cells; trypsin; accumulation of K46-K346 fragment"}, "[7]": {"details": "Enterobacter cloacae, ATCC13047"}, "[8]": {"details": "Klebsiella pneumoniae, ATCC13883"}},
  "note": "Square brackets hold non-standard residues; d marks the D form. Peptide text beside a SMILES is read from it. * marks the point of attachment. ξ: configuration not given here. ξR = N=C(N)NCCCC(N)C(=O)O; βNA = c1ccc2cc(N*)ccc2c1",
  "data": [
    {"smiles": "CO[C@@H]1[C@@H](OC(N)=O)[C@@H](O)[C@H](Oc2ccc3c(O)c(NC(=O)c4ccc(O)c(CC=C(C)C)c4)c(=O)oc3c2C)OC1(C)C", "note": "[NOV, novobiocin]", "values": [
      {"measurement": "MIC", "setting": "E. cloacae ATCC13047 [1]; [7]", "result": 400, "unit": "µg/mL"},
      {"measurement": "MIC", "setting": "K. pneumoniae ATCC13883 [2]; [8]", "result": 50, "unit": "µg/mL"},
      {"measurement": "MIC ΔtolC", "setting": "E. coli ΔtolC", "result": 0.5, "unit": "µM"},
      {"measurement": "MIC", "setting": "E. coli WT-pore", "result": "32 to 64", "unit": "µM"},
      {"measurement": "Kd", "setting": "AcrA [3]", "result": 40, "unit": "µM"},
      {"measurement": "MIC ΔtolC-pore", "setting": "E. coli ΔtolC-pore", "result": 0.125, "unit": "µM"},
      {"measurement": "MIC", "setting": "E. coli BW25113 (WT)", "result": 128, "unit": "µM"}
    ]},
    {"smiles": "NC(N)=NCCCC(NC(=O)[C@@H](N)Cc1ccccc1)C(=O)Nc1ccc2ccccc2c1", "note": "(stereo partly shown) [MC] (H-Phe-[ξR]-βNA)", "values": [
      {"measurement": "Kd", "setting": "AcrB", "result": 110, "unit": "µM"}
    ]},
    {"smiles": "CC[C@H]1OC(=O)[C@H](C)[C@@H](O[C@H]2C[C@@](C)(OC)[C@@H](O)[C@H](C)O2)[C@H](C)[C@@H](O[C@@H]2O[C@H](C)C[C@H](N(C)C)[C@H]2O)[C@](C)(O)C[C@@H](C)C(=O)[C@H](C)[C@@H](O)[C@]1(C)O", "note": "[ERY, erythromycin]", "values": [
      {"measurement": "MIC", "setting": "E. cloacae ATCC13047 [1]; [7]", "result": 400, "unit": "µg/mL"},
      {"measurement": "MIC", "setting": "K. pneumoniae ATCC13883 [2]; [8]", "result": 400, "unit": "µg/mL"},
      {"measurement": "MIC ΔtolC", "setting": "E. coli ΔtolC", "result": 2, "unit": "µM"},
      {"measurement": "MIC", "setting": "E. coli WT-pore", "result": "4 to 8", "unit": "µM"},
      {"measurement": "MIC", "setting": "E. coli BW25113 (WT)", "result": 64, "unit": "µM"}
    ]},
    {"smiles": "Cc1cc(N)c2cc(NC(=O)/C=C/c3ccccc3Cl)ccc2n1", "note": "[Compound 2]", "values": [
      {"measurement": "fold MIC (CIP)", "setting": "E. cloacae ATCC13047 [4]", "result": 1},
      {"measurement": "fold MIC (ERY)", "setting": "E. cloacae ATCC13047 [4]", "result": 8},
      {"measurement": "fold MIC (NOV)", "setting": "E. cloacae ATCC13047 [4]", "result": 64},
      {"measurement": "MIC", "setting": "E. cloacae ATCC13047 [1]; E. cloacae ATCC13047, test compounds, average of two replicates", "result": ">100", "unit": "µM"},
      {"measurement": "fold MIC (NOV)", "setting": "K. pneumoniae ATCC13883 [5]", "result": 64},
      {"measurement": "MIC", "setting": "K. pneumoniae ATCC13883 [2]; K. pneumoniae ATCC13883, test compounds, average of two replicates", "result": ">100", "unit": "µM"},
      {"measurement": "potentiation MPC4 (ERY)", "setting": "E. coli WT-pore cells; minimum concentration reducing MIC of erythromycin 4-fold", "result": 3.1, "unit": "µM"},
      {"measurement": "potentiation MPC4 (NOV)", "setting": "E. coli WT-pore cells; minimum concentration reducing MIC of novobiocin 4-fold", "result": 1.56, "unit": "µM"},
      {"measurement": "CC50", "setting": "A549 cells", "result": 10, "unit": "µM"},
      {"measurement": "MIC ΔtolC", "setting": "E. coli ΔtolC", "result": 12.5, "unit": "µM"},
      {"measurement": "MIC WT-pore", "setting": "E. coli WT-pore; E. coli hyperporinated WT-pore, average of two replicates", "result": 100, "unit": "µM"},
      {"measurement": "efflux inhibition, SS ratio 32 μM/0 μM", "setting": "AcrAB−TolC", "result": 6.5},
      {"measurement": "effect on proteolytic profile of AcrA", "setting": "AcrA [6]", "result": "did not affect the proteolytic profiles of AcrA"},
      {"measurement": "MIC ΔtolC-pore", "setting": "E. coli ΔtolC-pore", "result": 12.5, "unit": "µM"},
      {"measurement": "MIC WT", "setting": "E. coli BW25113 (WT); E. coli WT, average of two replicates", "result": 200, "unit": "µM"}
    ]}
  ]
}
